Several values for one entry are separate records, joined by “and”; a condition that tells them apart may be missing. Equal values may be shown once.
Legend:
avian species = settings: long-term silastic implants, literature; cited from earlier work
[1] = Example 1: plasma CORT radioimmunoassay after injection, zebra finches; format: in vivo, zebra finch (Taeniopygia guttata); settings: female zebra finches
Method: This experiment was conducted to determine whether a single injection of CORT at the critical time of sex chromosome segregation is sufficient to skew offspring sex ratios towards females. Female zebra finches were monitored for signs of nest-building and egg-laying. Approximately 19 h following the appearance of the first egg (1 h before sex chromosome segregation), females received one of two treatments: (1) a high dose of CORT (20 ug in 50 ul peanut oil), or (2) a control treatment (50 ul peanut oil). Because oviposition and ovulation are nearly concurrent, ovulation of the second egg took place when the first egg was laid. Thus, the egg that would be affected by our treatment was the third egg in the sequence. Eggs were labeled as they were laid and were collected after 6 d of incubation for molecular sexing analysis as described above. The percentage of females producing male offspring in each group were calculated and compared using chi square analyses. Blood samples were taken from a subset of females 1 h and 2.5 h post injection to verify that the CORT injection did, in fact, elevate circulating maternal CORT concentrations. CORT was quantified using a standard radioimmunoassay and CORT concentrations were log transformed and analyzed using an analysis of variance (ANOVA).

[2] = Example 2: plasma corticosterone radioimmunoassay after injection, zebra finches; format: in vivo, Zebra finch (Taeniopygia guttata); settings: zebra finch, 20 ug
Method: Radioimmunoassays. […] Different individuals were sampled at each time point. Blood samples were also taken from a set of unmanipulated females at time intervals 20 minutes and 1 hour, during the same bleeding session. To ensure that measurements reflect corticosterone elevations associated with the injection and not the stress of handling, samples were taken from the brachial vein within 3 minutes of capture (Romero and Romero, 2002, Condor; 104:129-135; Wingfield et al., 1982, Condor; 84:399-409). Injections and sampling began at 2300 hours (5 hors prior to ovulation) to accurately measure the blood plasma levels of corticosterone and changes in corticosterone levels in response to injections during the approximate period that meiosis occurs. Based on studies done in other avian species, it is likely that the time period from injection to blood sampling is just prior to the natural diurnal CORT peak that occurs at the end of the dark period (Westerhof et al., 1994, Avian Diseases; 38:428-434; de Jong et al., 2001, Physiology and Behavior; 74:299-304). The procedures for extraction and radioimmunoassay of corticosterone from plasma were followed as described by (Wingfield and Farner, 1975, Steroids; 26:311-327) and (Mendonça et al., 1996, Horm Behav; 30:153-161) using a rabbit derived anti-corticosterone antibody (MP Biomedicals, Solon, Ohio USA, cat #07-120016).
Statistical Analysis. Plasma CORT concentrations were analyzed among treatment groups and time points using a two-way ANOVA, and individual treatment differences were analyzed using Fisher's PLSD. All hormone data were non-normally distributed and were thus log transformed for statistical analyses.

[3] = system: Hyline W-36 and Brown layer hens; assay: Example 3: offspring sex ratio after acute corticosterone injection five hours before ovulation, laying hens; format: in vivo, chicken
Method: Hyline W-36 and Brown layer hens were housed in individual layer cages in a single room, had ad libitum access to food and water, and maintained on a 14 h L:10 h D light schedule. Hens were artificially inseminated biweekly with pooled semen from 8 roosters to ensure egg fertilization. Hens were monitored throughout the day for egg-laying and eggs were collected manually every 2 h during peak-laying hours. Previous studies in laying hens have shown that ovulation occurs within 30 minutes of oviposition (Johnson, A. L. Reproduction in the female, in Sturkie's Avian Physiology. G. C. Whittow, Editor. 2000, Academic Press: New York, N.Y. p. 569-596); therefore, egg laying patterns can be used to predict the timing of ovulation.
Injection treatments were administered to hens subcutaneously in the back of the neck five hours prior to the predicted time of ovulation with one of the following treatments: 0.5 ml of control peanut oil (CONT) or 1.5 mg corticosterone dissolved in 0.5 ml of peanut oil (CORT). Ovulated follicles took 24 h to pass through the remainder of the reproductive tract and were collected at oviposition (FIG. 6). […]
Statistical Analysis. […] Plasma corticosterone concentrations were analyzed among treatment groups and time points using an ANOVA and differences among individual treatment groups were analyzed using Fisher's PLSD. […]

C[C@]12C[C@H](O)[C@H]3[C@@H](CCC4=CC(=O)CC[C@@]43C)[C@@H]1CC[C@@H]2C(=O)CO [corticosterone]
offspring sex ratio with long-term CORT elevation (avian species): sex ratios were skewed significantly towards females
circulating CORT concentrations compared to controls ([1]; 20 ug CORT in 50 ul peanut oil, within 1 h of injection, p<0.0001): significantly increased circulating CORT concentrations
circulating CORT concentrations compared to controls ([1]; 20 ug CORT, 2.5 h post-injection, p=0.08): remained higher in the CORT treated females 2.5 h post-injection, but not significantly so
plasma corticosterone levels compared to non-injected birds ([2]; 20 minutes after injection, p<0.0001): raised corticosterone levels significantly
levels of corticosterone post-injection ([2]; 20 minutes, 1 hour and 2.5 hours post-injection (summary statement)): significantly elevated levels of corticosterone
plasma corticosterone levels compared to non-injected birds ([2]; 1 hour post-injection, p=0.0002): remained significantly elevated
plasma corticosterone levels, CORT treated versus control treated females ([2]; 2.5 hours after injection, p=0.0789): similar
plasma corticosterone levels compared to unmanipulated females ([2]; 2.5 hr post-injection versus unmanipulated birds sampled at 1 h, p=0.0401): significantly higher corticosterone levels
plasma corticosterone levels (FIG. 4 legend) ([2]; min and one hour after injection): significantly raised plasma corticosterone levels
males produced (offspring sex ratio) ([3]; 1.5 mg in 0.5 ml peanut oil subcutaneously five hours before ovulation, p=0.01 vs all hens the day before, p=0.72 vs control injection): ~83% and 82.6%
males produced after treatment compared to before treatment, same hens ([3]; 1.5 mg, target versus pre-target eggs, p=0.02): produced significantly more males
